Reference: patent US20150087627A1, “COMBINATION OF KINASE INHIBITORS AND USES THEREOF” (Intellikine LLC, priority 2011, published 2015)
Like-named read-outs stand apart in the source and are kept apart here.

Assays:
Format in all cases: biochemical
PI3K δ = molecular target: T1, PI3K δ (Homo sapiens, UniProt O00329); experiment: PI 3-Kinase (human) HTRF assay, PI3K δ
T1 construct: purchased Upstate / Millipore Corporation

PI3K β (p110β/p85α) = molecular target: T2, PI3K β (p110β/p85α) (Homo sapiens, UniProt P42338); experiment: PI 3-Kinase (human) HTRF assay, PI3K β; conditions: read-out: PI3K β IC50
T2 construct: purchased Upstate / Millipore Corporation
T2 sequence (P42338 whole entry): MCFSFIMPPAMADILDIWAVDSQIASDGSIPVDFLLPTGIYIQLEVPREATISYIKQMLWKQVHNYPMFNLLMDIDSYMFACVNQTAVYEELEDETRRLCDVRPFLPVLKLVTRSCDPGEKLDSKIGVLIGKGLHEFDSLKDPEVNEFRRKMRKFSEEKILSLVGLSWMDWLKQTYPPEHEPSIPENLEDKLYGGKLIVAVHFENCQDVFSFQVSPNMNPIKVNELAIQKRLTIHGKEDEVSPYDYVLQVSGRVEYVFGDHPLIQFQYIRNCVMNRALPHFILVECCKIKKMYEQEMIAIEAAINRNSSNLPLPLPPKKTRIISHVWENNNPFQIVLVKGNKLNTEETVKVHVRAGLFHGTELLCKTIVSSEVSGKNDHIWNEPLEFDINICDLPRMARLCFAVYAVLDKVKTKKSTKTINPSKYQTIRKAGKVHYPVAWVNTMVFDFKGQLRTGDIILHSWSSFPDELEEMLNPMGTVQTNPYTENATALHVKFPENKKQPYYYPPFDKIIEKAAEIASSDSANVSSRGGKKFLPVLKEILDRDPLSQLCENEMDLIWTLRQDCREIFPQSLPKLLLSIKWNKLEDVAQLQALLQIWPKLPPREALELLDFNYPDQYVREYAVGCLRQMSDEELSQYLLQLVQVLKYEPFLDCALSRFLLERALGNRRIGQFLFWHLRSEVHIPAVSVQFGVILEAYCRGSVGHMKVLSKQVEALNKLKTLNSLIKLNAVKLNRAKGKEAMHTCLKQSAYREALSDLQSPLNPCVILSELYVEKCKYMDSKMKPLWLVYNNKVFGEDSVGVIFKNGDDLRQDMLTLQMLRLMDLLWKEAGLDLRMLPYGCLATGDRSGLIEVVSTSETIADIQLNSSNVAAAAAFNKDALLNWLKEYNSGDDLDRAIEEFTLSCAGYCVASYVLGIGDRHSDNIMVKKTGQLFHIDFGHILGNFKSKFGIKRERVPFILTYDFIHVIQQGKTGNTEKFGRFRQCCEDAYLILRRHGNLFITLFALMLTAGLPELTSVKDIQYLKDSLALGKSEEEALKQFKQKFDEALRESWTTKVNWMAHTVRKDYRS
T2 sequence (P27986 whole entry partner): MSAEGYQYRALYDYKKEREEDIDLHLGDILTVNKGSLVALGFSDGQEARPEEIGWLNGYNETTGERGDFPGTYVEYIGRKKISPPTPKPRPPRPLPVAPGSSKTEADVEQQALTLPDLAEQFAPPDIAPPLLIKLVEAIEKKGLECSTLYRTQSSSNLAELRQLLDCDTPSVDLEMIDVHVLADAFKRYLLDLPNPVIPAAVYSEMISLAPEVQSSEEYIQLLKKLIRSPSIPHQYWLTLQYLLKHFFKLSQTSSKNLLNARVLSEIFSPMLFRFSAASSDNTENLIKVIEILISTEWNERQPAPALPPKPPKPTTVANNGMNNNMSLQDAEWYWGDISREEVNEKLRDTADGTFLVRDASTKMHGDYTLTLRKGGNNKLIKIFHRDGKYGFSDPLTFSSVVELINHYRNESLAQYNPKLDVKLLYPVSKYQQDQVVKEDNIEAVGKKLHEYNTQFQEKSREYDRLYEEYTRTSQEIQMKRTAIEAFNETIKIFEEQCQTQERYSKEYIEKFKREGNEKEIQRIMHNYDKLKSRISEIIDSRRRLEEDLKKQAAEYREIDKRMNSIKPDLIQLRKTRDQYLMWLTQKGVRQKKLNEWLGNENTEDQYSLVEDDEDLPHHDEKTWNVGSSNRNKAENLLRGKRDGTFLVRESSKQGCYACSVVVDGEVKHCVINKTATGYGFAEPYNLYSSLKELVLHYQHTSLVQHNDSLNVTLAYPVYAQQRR

PI3K γ (p110γ) = molecular target: T3, PI3K γ (p110γ) (Homo sapiens, UniProt P48736); experiment: PI 3-Kinase (human) HTRF assay, PI3K γ
T3 construct: purchased Upstate / Millipore Corporation
T3 sequence (P48736 whole entry): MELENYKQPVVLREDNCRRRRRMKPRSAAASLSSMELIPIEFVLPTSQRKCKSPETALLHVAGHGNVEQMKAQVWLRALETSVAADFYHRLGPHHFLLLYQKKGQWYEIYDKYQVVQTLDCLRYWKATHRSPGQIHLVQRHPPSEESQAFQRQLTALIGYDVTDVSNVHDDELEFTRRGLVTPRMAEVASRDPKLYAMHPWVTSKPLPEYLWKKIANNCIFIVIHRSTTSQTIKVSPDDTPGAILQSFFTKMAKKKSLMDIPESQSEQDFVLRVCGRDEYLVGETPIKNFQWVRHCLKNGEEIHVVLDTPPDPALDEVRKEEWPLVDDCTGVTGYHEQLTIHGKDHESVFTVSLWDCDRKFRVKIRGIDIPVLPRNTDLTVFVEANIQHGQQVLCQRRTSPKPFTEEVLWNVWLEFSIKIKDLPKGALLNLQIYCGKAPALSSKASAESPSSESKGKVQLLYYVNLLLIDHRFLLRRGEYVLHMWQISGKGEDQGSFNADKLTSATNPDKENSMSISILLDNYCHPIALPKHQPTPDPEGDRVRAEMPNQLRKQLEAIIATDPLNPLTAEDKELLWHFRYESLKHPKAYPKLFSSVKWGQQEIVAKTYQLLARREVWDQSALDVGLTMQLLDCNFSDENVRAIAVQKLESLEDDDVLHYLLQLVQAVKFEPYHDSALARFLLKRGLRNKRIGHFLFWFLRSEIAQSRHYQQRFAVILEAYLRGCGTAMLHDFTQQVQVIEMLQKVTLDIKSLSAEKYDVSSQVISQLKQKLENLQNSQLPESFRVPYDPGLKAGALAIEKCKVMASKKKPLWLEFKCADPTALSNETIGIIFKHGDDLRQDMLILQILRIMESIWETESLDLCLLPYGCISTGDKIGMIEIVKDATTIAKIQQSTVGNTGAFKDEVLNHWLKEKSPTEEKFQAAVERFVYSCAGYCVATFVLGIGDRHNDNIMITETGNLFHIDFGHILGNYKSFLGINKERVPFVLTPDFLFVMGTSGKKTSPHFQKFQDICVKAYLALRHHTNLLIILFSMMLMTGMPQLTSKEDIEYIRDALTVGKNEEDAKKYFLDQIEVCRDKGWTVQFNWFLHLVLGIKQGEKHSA

PI3K α (p110α/p85α) = molecular target: T4, PI3K α (p110α/p85α) (Homo sapiens, UniProt P42336); experiment: PI 3-Kinase (human) HTRF assay, PI3K α; conditions: read-out: PI3K α IC50
T4 construct: purchased Upstate / Millipore Corporation
T4 sequence (P42336 whole entry): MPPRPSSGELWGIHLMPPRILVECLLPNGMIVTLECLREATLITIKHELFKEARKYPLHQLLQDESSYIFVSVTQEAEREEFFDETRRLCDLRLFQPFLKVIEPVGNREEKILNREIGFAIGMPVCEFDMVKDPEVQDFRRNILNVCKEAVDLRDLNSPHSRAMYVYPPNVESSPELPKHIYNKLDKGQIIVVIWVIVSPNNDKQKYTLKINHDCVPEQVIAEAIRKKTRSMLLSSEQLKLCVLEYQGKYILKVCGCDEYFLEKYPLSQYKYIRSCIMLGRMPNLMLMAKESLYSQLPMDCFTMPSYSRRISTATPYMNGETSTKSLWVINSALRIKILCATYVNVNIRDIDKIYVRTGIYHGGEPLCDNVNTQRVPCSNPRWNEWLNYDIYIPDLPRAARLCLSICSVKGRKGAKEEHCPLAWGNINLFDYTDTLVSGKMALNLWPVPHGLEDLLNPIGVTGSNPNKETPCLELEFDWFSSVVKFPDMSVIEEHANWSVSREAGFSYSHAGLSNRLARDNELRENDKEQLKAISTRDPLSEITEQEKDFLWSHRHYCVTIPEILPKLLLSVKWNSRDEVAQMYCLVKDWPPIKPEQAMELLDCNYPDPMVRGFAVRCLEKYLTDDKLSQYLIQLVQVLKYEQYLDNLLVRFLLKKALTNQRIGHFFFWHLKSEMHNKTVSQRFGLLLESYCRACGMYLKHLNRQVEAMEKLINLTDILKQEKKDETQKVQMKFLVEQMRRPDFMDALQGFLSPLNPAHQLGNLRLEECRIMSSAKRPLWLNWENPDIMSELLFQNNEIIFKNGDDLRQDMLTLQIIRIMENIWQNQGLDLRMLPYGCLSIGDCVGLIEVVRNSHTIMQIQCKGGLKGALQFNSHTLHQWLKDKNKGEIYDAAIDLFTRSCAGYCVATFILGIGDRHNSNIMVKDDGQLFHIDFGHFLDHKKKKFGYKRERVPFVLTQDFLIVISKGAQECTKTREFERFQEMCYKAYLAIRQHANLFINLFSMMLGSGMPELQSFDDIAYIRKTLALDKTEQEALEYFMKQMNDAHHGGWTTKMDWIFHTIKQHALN
T4 sequence (P27986 whole entry partner): as the sequence (P27986 whole entry partner) above

T1 sequence (O00329 whole entry): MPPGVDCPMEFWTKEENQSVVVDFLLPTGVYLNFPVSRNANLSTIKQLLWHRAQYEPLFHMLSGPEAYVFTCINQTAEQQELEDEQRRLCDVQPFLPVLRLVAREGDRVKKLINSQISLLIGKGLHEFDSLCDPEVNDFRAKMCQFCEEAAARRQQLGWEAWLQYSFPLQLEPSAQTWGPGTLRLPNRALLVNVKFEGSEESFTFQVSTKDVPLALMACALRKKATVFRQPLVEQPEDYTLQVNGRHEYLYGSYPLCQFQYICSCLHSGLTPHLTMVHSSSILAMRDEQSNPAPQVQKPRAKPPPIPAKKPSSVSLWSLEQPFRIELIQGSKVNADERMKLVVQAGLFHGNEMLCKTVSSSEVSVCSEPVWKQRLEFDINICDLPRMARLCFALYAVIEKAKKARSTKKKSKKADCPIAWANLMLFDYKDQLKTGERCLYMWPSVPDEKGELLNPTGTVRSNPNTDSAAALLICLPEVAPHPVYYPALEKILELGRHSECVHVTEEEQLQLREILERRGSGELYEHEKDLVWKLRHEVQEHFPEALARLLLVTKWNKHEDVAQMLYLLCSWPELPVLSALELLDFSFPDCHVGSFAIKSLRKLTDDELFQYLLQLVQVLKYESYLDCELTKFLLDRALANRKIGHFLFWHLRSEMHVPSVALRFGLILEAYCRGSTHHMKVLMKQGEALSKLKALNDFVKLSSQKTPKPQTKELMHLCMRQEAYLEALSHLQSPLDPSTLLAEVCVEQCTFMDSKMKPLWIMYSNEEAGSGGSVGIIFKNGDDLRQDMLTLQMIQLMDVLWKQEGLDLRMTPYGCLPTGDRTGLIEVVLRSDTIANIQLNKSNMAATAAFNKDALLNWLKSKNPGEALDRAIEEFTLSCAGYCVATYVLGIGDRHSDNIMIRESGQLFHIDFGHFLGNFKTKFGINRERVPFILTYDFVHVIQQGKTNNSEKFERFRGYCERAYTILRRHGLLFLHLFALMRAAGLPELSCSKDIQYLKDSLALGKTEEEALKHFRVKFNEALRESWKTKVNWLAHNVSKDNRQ
T1 sequence (P27986 whole entry partner): as the sequence (P27986 whole entry partner) above

Row | SMILES | IC50 (PI3K δ; read-out: PI3K δ IC50) [µM] | IC50 (PI3K β (p110β/p85α)) [µM] | IC50 (PI3K γ (p110γ); read-out: PI3K γ IC50) [nM] | IC50 (PI3K α (p110α/p85α)) [µM] | IC50 (PI3K δ) [µM] | IC50 (PI3K γ (p110γ); PI3K γ IC50 (nM)) [nM]
1 | Nc1nc2cc(-c3ccc4ncc(N5CCN(CC6CC6)CC5)nc4c3)ccc2o1 [Compound 153] | < 1 | < 0.1 | < 1000 | < 0.1 |  | 
2 | CN1CCC(N(C)c2ncnc3ccc(-c4ccc5oc(N)nc5c4)cc23)CC1 [Compound 155] |  | < 0.1 |  | < 0.1 | < 1 | < 100
3 | CN1CCC(NC(=O)c2cnc3ccc(-c4ccc5oc(N)nc5c4)cn23)CC1 [Compound 159] | < 0.1 | < 1 | < 1000 | < 0.1 |  | 
4 | CC(C)N1CCN(C(=O)c2cnc3ccc(-c4ccc5oc(N)nc5c4)cn23)CC1 [Compound 160] | > 10 | < 10 | > 10000 | < 0.1 |  | 
5 | Nc1nc2cc(-c3ccc4ncc(C(=O)N5CCC(N6CCOCC6)CC5)n4c3)ccc2o1 [Compound 163] | < 10 | < 10 | < 10000 | < 1 |  | 
6 | CN(CCN1CCOCC1)c1cnc2ccc(-c3ccc4oc(N)nc4c3)cc2n1 [Compound 166] | > 10 | < 10 | < 10000 | < 1 |  | 
7 | Nc1nc2cc(-c3ccc4ncc(-c5ccccc5)nc4c3)ccc2o1 [Compound 180] | > 10 | > 10 | > 10000 | < 1 |  | 
8 | CS(=O)(=O)CCN1CCC(Nc2cnc3ccc(-c4ccc5oc(N)nc5c4)cc3n2)CC1 [Compound 181] | < 1 | < 10 | < 100 | < 0.1 |  | 
9 | CCn1cnc2ccc(-c3ccc4oc(N)nc4c3)cc2c1=O [Compound 183] | < 10 | < 10 | < 100 | < 0.1 |  | 
10 | Cc1ncccc1-c1cnc2ccc(-c3ccc4oc(N)nc4c3)cc2n1 [Compound 185] | > 10 | > 10 | > 10000 | < 1 |  | 
11 | Nc1nc2cc(-c3ccc4ncc(C(=O)NC5CC5)n4c3)ccc2o1 [Compound 187] | < 1 | < 10 | < 100 | < 0.1 |  | 
12 | NCC(=O)N1CCN(c2cnc3ccc(-c4ccc5oc(N)nc5c4)cc3n2)CC1 [Compound 192] | < 1 | < 1 | < 1000 | < 0.1 |  | 
13 | Cc1ccc(-c2cnc3ccc(-c4ccc5oc(N)nc5c4)cc3n2)cn1 [Compound 194] | > 10 | > 10 | < 100 | < 0.1 |  | 
14 | Nc1nc2cc(-c3ccc4ncc(-c5ccccn5)nc4c3)ccc2o1 [Compound 195] | > 10 | < 10 | < 100 | < 1 |  | 
15 | Nc1nc2cc(-c3ccc4ncc(C(=O)N5CCC5)n4c3)ccc2o1 [Compound 197] | < 10 | < 10 | < 100 | < 0.1 |  | 
16 | CC1CN(C(=O)c2cnc3ccc(-c4ccc5oc(N)nc5c4)cn23)CCO1 (stereo not drawn) [Compound 201] | > 10 | < 10 | < 10000 | < 0.1 |  | 
17 | Nc1nc2cc(-c3ccc4ncn(C5CCC5)c(=O)c4c3)ccc2o1 [Compound 205] | > 10 | > 10 | > 10000 | < 0.1 |  | 
18 | CC(C)n1cnc2ccc(-c3ccc4oc(N)nc4c3)cc2c1=O [Compound 206] | > 10 | > 10 | < 1000 | < 0.1 |  | 
19 | Nc1nc2cc(-c3ccc4ncc(N5CC(C(=O)NC6CC6)C5)nc4c3)ccc2o1 [Compound 215] | < 10 | < 1 | < 1000 | < 0.1 |  | 
20 | CN(C)CC(=O)N1CCN(c2cnc3ccc(-c4ccc5oc(N)nc5c4)cc3n2)CC1 [Compound 217] | < 1 | < 1 | < 1000 | < 0.1 |  | 
21 | CCN(CC)CCNc1cnc2ccc(-c3ccc4oc(N)nc4c3)cc2n1 [Compound 218] | < 1 | < 1 | < 10000 | < 1 |  | 
22 | CCN(CC)CCCNc1cnc2ccc(-c3ccc4oc(N)nc4c3)cc2n1 [Compound 220] | < 0.1 | < 1 | < 1000 | < 0.1 |  | 

Continued, in another order:

Row | IC50 (PI3K δ; read-out: PI3K δ IC50) [µM] | IC50 (PI3K β (p110β/p85α)) [µM] | IC50 (PI3K γ (p110γ); read-out: PI3K γ IC50) [nM] | IC50 (PI3K α (p110α/p85α)) [µM] | SMILES | IC50 (PI3K δ) [µM] | IC50 (PI3K γ (p110γ); PI3K γ IC50 (nM)) [nM]
23 | < 10 | < 1 | < 100 | < 0.1 | CNC(=O)N1CCN(c2cnc3ccc(-c4ccc5oc(N)nc5c4)cc3n2)CC1 [Compound 154] |  | 
24 | > 10 | > 10 | > 10000 | < 10 | CN1CCN(C(=O)c2cnc3ccc(-c4ccc5oc(N)nc5c4)cc3n2)CC1 [Compound 157] |  | 
25 | > 10 | > 10 | > 10000 | < 10 | Nc1nc2cc(-c3ccc4ncc(C(=O)N5CCOCC5)nc4c3)ccc2o1 [Compound 158] |  | 
26 | > 10 | > 10 | < 10000 | < 1 | Nc1nc2cc(-c3ccc4ncc(C(=O)N5CCC(O)CC5)n4c3)ccc2o1 [Compound 162] |  | 
27 | > 10 | < 1 | > 10000 | < 1 | CC1CN(C(=O)c2cnc3ccc(-c4ccc5oc(N)nc5c4)cn23)CCN1 (stereo not drawn) [Compound 164] |  | 
28 | < 10 | < 10 | > 10000 | < 1 | CN1CCC(N(C)C(=O)c2cnc3ccc(-c4ccc5oc(N)nc5c4)cn23)CC1 [Compound 165] |  | 
29 | > 10 | > 10 | > 10000 | < 10 | Nc1nc2cc(-c3ccc4ncc(-c5ccc(N6CCOCC6)nc5)nc4c3)ccc2o1 [Compound 167] |  | 
30 | < 10 | < 1 | > 10000 | < 0.1 | Nc1nc2cc(-c3ccc4ncc(N5CCC(N)CC5)nc4c3)ccc2o1 [Compound 168] |  | 
31 | < 0.1 | < 0.1 | < 1000 | < 0.1 | CN(C)C1CCN(c2cnc3ccc(-c4ccc5oc(N)nc5c4)cc3n2)CC1 [Compound 172] |  | 
32 | < 10 | < 1 | < 100 | < 0.1 | Cc1nccn1-c1cnc2ccc(-c3ccc4oc(N)nc4c3)cc2n1 [Compound 174] |  | 
33 | < 1 | < 1 | < 100 | < 0.1 | Nc1nc2cc(-c3ccc4ncc(N5CCCC5)nc4c3)ccc2o1 [Compound 176] |  | 
34 | < 1 | < 1 | < 1000 | < 0.1 | CC(C)(C)N1CCN(c2cnc3ccc(-c4ccc5oc(N)nc5c4)cc3n2)CC1 [Compound 182] |  | 
35 | > 10 | < 10 | < 1000 | < 0.1 | Nc1nc2cc(-c3ccc4ncn(CCO)c(=O)c4c3)ccc2o1 [Compound 184] |  | 
36 | < 1 | < 10 | < 100 | < 0.1 | Nc1nc2cc(-c3ccc4ncc(C(=O)N5CCCC5)n4c3)ccc2o1 [Compound 186] |  | 
37 | < 1 | < 1 | < 1000 | < 0.1 | Nc1nc2cc(-c3ccc4ncc(C(=O)NCCO)n4c3)ccc2o1 [Compound 189] |  | 
38 | < 10 | < 10 | < 10000 | < 0.1 | CC(C)(C)N1CCN(C(=O)c2cnc3ccc(-c4ccc5oc(N)nc5c4)cn23)CC1 [Compound 191] |  | 
39 | < 10 | < 1 | < 100 | < 0.1 | COC(=O)N1CCN(c2cnc3ccc(-c4ccc5oc(N)nc5c4)cc3n2)CC1 [Compound 193] |  | 
40 | > 10 | < 10 | < 10000 | < 1 | Nc1nc2cc(-c3ccc4ncc(C(=O)N5CCCCC5)n4c3)ccc2o1 [Compound 196] |  | 
41 | < 0.1 | < 10 | < 100 | < 0.1 | CS(=O)(=O)CCN1CCC(NC(=O)c2cnc3ccc(-c4ccc5oc(N)nc5c4)cn23)CC1 [Compound 199] |  | 
42 | < 10 | < 10 | < 100 | < 0.1 | Nc1nc2cc(-c3ccc4ncc(C(=O)N5CC(O)C5)n4c3)ccc2o1 [Compound 200] |  | 
43 | < 1 | < 0.1 | < 100 | < 0.1 | CN1CCC(NC(=O)c2cnc3ccc(-c4ccc5oc(N)nc5c4)nn23)CC1 [Compound 203] |  | 
44 | < 1 | < 0.1 | < 100 | < 0.1 | C[C@H](N)C(=O)N1CCN(c2cnc3ccc(-c4ccc5oc(N)nc5c4)cc3n2)CC1 [Compound 207] |  | 
45 | < 1 | < 1 | < 10000 | < 0.1 | C[C@@H](N)C(=O)N1CCN(c2cnc3ccc(-c4ccc5oc(N)nc5c4)cc3n2)CC1 [Compound 208] |  | 
46 | < 10 | < 1 | < 100 | < 0.1 | Nc1nc2cc(-c3ccc4ncc(N5CCC(O)C5)nc4c3)ccc2o1 (stereo not drawn) [Compound 209] |  | 
47 | > 10 | > 10 | > 10000 | < 1 | Nc1ncc(-c2cnc3ccc(-c4ccc5oc(N)nc5c4)cc3n2)cn1 [Compound 210] |  | 
48 | < 0.1 | < 0.1 | < 100 | < 0.1 | CC(=O)N1CCC(Nc2ncnc3ccc(-c4ccc5oc(N)nc5c4)nc23)CC1 [Compound 211] |  | 
49 | < 1 | < 1 | < 1000 | < 0.1 | CN1CCC(Nc2ncnc3ccc(-c4ccc5oc(N)nc5c4)nc23)CC1 [Compound 212] |  | 
50 | < 10 | < 0.1 | < 1000 | < 0.1 | CNC(=O)C1CN(c2cnc3ccc(-c4ccc5oc(N)nc5c4)cc3n2)C1 [Compound 214] |  | 
51 | < 1 | < 1 | < 1000 | < 1 | Nc1nc2cc(-c3ccc4ncc(NCCN5CCCC5)nc4c3)ccc2o1 [Compound 219] |  | 
